Values of other authors, collected in patent US20110256072A1, “FOOD AND COMPOSITION EACH COMPRISING PHOSPHORYLATED SACCHARIDE, POLYPHENOL AND FLUORIDE” (EZAKI GLICO CO., LTD., priority 2008, published 2011).
“And” between values parts separate entries of the source, which are not always exact repeats. Equal values may be shown once. Read-outs that look alike come from different tables or passages of the source.

System: dental caries

Compound | Inhibition rate (in vivo) | other results
[F-].[Na+] [2% Sodium fluoride solution, Sodium fluoride] | 20-40% | –
[F-].[Na+] [NaF: 0.05% every day method, NaF] | – | Inhibition rate (Fluoride mouth washing method, 226 ppm, Permanent tooth): 20-50%
[F-].[Na+] [Sodium fluoride] | 25-50% and 20-40% and ~30% | –
[F][Sn][F] [SnF2: 8% Solution, SnF2] | – | Inhibition rate (Local application to dental surface, 19,400 ppm, Permanent tooth): 20-50%
